Test results as given in patent publication US7414140B2 (Teva Pharmaceutical Industries Ltd., priority 2003, dated 2008).

Test: Solubility of fluvastatin sodium in solvents
Assay type: physicochemical
Details: in water at 100° C.; read-out: Concentration of solution obtainable (solubility)
Source text: Fluvastatin sodium Form XLI can be prepared by precipitating fluvastatin sodium from a mixture of water and acetonitrile. Fluvastatin sodium should first be dissolved in water. The water may be heated in order to produce a more concentrated solution and maximized recovery of Form XLI. […] The addition is done at whatever elevated temperature was used to dissolve the starting material or at higher temperature. The addition is dropwise and will generally require adding a excess of acetonitrile over the amount of water that was used. For example, we used a little less than four volumes of acetonitrile. The resulting heterogeneous mixture is then allowed to cool. Before isolating the fluvastatin sodium Form XLI that precipitates. The recovery can be improved by adding an addition portion of acetonitrile after cooling.
Fluvastatin sodium Form L can be prepared by precipitation from a mixture of methanol and ethyl acetate. The fluvastatin sodium starting material, in any crystalline form or amorphous, should first be dissolved in the methanol. […] The starting material can be dissolved either at ambient or elevated temperature, e.g. the boiling point of methanol. Once dissolved, precipitation of Form L is induced by dropwise addition of ethyl acetate to the solution at elevated temperature. The amount of ethyl acetate used is preferably about three times the volume of methanol. […]

solubility: ≥ 375 mg/mL
Structure (SMILES): CC(C)n1c(/C=C/C(O)CC(O)CC(=O)O)c(-c2ccc(F)cc2)c2ccccc21 (stereo not drawn) [Fluvastatin sodium, [R*,S*-(E)]-(±)-7-[3-(4-fluorophenyl)-1-(1-methylethyl)-1H-indol-2-yl]-3,5-dihydroxy-6-heptenoic acid monosodium]
